Assay results: patent US7235569B2, “Piperidinyl indole and tetrohydropyridinyl indole derivatives and method of their use” (Wyeth, priority 2003, dated 2007)
Where two headings read alike, the source gives them in different places.

Tests used:
human 5-HT1A receptors = molecular target: T1, human 5-HT1A receptors (Homo sapiens, UniProt P08908); assay: [3H] 8-OH-DPAT displacement from 5-HT1A receptor (CHO cells stably transfected); format: binding; conditions: for inhibition at 1 µM: read-out: 5-HT1A % inhibition at 1 μM, cells marked * in the 5-HT1A column
T1 construct: expressed in transfected cells
T1 sequence (P08908 1-422): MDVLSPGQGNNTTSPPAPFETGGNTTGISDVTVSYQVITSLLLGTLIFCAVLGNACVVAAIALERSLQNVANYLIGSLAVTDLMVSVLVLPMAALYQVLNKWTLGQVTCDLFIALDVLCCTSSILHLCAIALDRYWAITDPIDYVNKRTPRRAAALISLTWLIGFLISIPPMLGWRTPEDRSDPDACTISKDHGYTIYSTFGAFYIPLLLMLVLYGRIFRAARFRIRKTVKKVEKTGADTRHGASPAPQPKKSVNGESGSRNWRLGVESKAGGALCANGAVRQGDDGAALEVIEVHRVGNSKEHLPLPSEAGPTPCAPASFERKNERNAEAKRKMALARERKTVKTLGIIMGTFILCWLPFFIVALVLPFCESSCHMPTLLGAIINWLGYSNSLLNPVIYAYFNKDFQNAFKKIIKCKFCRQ

5-HT transporter = molecular target: T2, 5-HT transporter (Rattus norvegicus, UniProt P31652); assay: Rat Brain 3H-Paroxetine Binding Assay (RB 5HT Transporter)
T2 construct: frontal cortical membranes prepared from male S.D. rats; from tissue; host or cells: frontal cortical membranes of male Sprague-Dawley rats
Protocol: Rat Brain ^3H-Paroxetine Binding Assay (RB 5HT Transporter)
This assay was used to determine a compound's affinity of the 5-HT transporter. […] Briefly, frontal cortical membranes prepared from male S.D. rats were incubated with ^3H-parxetine (0.1 nM) for 60 min. at 25° C. All tubes also contained either vehicle, test compound (one to eight concentrations), or a saturating concentration of fluoxetine (10 μM) to define […]. All reactions are terminated by the addition of ice cold Tris buffer followed by rapid filtration using a Tom Tech filtration device to separate bound from free ^3H-paroxetine.

Human 5-HT Transporter = Human 5-HT Transporter (Homo sapiens, UniProt P31645); assay: cell-based
Protocol: On the day of assay, vehicle, excess of fluoxetine, or test compound is added to various wells on the plate. All wells then receive ^3H-5-HT and are incubated at 37° C. for 5 min. The wells are then washed with ice cold 50 mM Tris HCl (pH 7.4) buffer and aspirated to remove free ^3H-5-HT. 25 μl of 0.25 M NaOH is then added to each well to lyse the cells and 75 μl scintillation cocktail (Microscint™ 20) added prior to quantitation on a Packard TopCount machine. Tubes with vehicle represent total possible uptake, radioactivity counted in tubes with fluoxetine represent nonspecific binding/uptake and is subtracted from the total possible uptake to give total possible specific uptake. […] Specific uptake is then expressed as a % of control values and is analyzed using nonlinear regression analysis (Prizm) to determine IC50 values.

[1] = rat frontal cortical membranes, 3H-paroxetine 0.1 nM, read-out: RB-5HT Transporter Ki

Human 5-HT Transporter, sequence (P31645 whole entry): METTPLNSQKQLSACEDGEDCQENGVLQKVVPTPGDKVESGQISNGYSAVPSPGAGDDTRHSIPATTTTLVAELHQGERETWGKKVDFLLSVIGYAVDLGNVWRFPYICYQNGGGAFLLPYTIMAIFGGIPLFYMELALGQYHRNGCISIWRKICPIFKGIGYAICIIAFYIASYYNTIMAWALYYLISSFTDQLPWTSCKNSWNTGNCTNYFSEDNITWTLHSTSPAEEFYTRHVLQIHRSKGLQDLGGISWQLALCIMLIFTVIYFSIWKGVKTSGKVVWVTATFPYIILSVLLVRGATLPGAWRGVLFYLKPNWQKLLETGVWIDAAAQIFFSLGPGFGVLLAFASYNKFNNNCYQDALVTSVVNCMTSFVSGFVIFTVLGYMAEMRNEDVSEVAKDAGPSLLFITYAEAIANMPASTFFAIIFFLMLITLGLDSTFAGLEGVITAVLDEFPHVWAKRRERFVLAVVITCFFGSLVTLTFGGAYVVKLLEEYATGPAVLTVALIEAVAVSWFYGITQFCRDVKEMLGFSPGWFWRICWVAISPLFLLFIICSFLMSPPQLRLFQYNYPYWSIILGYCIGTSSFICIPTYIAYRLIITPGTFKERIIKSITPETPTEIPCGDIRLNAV
T2 sequence (P31652 whole entry): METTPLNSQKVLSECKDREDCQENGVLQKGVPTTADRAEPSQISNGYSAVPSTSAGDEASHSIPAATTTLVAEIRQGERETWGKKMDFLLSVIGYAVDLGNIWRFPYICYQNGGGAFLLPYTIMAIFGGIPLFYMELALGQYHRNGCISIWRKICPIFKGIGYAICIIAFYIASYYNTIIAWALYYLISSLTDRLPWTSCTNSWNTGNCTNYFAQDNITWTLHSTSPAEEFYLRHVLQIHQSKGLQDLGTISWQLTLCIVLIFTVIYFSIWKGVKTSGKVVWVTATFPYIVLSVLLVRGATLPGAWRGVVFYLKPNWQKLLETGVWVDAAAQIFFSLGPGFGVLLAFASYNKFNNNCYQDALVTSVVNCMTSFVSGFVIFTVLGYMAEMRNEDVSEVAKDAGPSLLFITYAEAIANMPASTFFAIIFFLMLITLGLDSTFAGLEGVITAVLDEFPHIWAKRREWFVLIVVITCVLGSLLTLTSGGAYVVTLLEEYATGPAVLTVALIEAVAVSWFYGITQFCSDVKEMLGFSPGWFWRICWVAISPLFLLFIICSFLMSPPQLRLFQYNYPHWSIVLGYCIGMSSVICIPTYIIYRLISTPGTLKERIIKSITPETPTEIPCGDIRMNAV

With `CC(CN1CC=C(c2c[nH]c3ccc(F)cc23)CC1)c1coc2ccccc12` (centres unmarked) [Compound 37, 3-{1-[2-(1-benzofuran-3-yl)propyl]-1,2,3,6-tetrahydro-4-pyridinyl}-5-fluoro-1H-indole] the inhibition at 1 µM (human 5-HT1A receptors) was 20%, the Ki (5-HT transporter) was 21 nM and the Ki (Human 5-HT Transporter) was 152 nM.
Work on `Cn1cc(C2=CCN(CCc3coc4ccccc34)CC2)c2ccccc21` [Compound 2, 3-{1-[2-(1-benzofuran-3-yl)ethyl]-1,2,3,6-tetrahydro-4-pyridinyl}-1-methyl-1H-indole] yielded a Ki (human 5-HT1A receptors) of 18.3 nM and a Ki (5-HT transporter) of 6 nM.
`Clc1ccc2occ(CCN3CC=C(c4cnc5ccccn45)CC3)c2c1` [Compound 44, 3-{1-[2-(5-chloro-1-benzofuran-3-yl)ethyl]-1,2,3,6-tetrahydropyridin-4-yl}imidazo[1,2-a]pyridine] gave an inhibition at 1 µM (human 5-HT1A receptors) of 44%, a Ki (5-HT transporter) of 97 nM and a Ki (Human 5-HT Transporter) of 63.8 nM.
`COc1ccc2occ(CC(C)N3CC=C(c4c[nH]c5ccccc45)CC3)c2c1` (centres unmarked) [Compound 43, 3-{1-[2-(5-methoxy-1-benzofuran-3-yl)-1-methylethyl]-1,2,3,6-tetrahydro-4-pyridinyl}-1H-indole] gave an inhibition at 1 µM (human 5-HT1A receptors) of 34%, a Ki (5-HT transporter) of 12 nM and a Ki (Human 5-HT Transporter) of 144 nM.
Work on `COc1ccc2c(CCN3CC=C(c4c[nH]c5cc(C#N)ccc45)CC3)coc2c1` [Compound 13, 3-{1-[2-(6-methoxy-1-benzofuran-3-yl)ethyl]-1,2,3,6-tetrahydro-4-pyridinyl}-6-cyano-1H-indole] yielded a Ki (human 5-HT1A receptors) of 12.7 nM, a Ki (5-HT transporter) of 3.36 nM and a melting point of 181 °C. The Ki (Human 5-HT Transporter) was 34.1 nM.
`CC(CN1CC=C(c2c[nH]c3cc(F)ccc23)CC1)c1coc2ccccc12` (centres unmarked) [Compound 36, 3-{1-[2-(1-benzofuran-3-yl)propyl]-1,2,3,6-tetrahydro-4-pyridinyl}-6-fluoro-1H-indole] gave an inhibition at 1 µM (human 5-HT1A receptors) of 11%, a Ki (5-HT transporter) of 4.43 nM and a Ki (Human 5-HT Transporter) of 42 nM.
`COc1cccc2c(CC(C)N3CC=C(c4c[nH]c5ccccc45)CC3)coc12` (centres unmarked) [Compound 41, 3-{1-[2-(7-methoxy-1-benzofuran-3-yl)-1-methylethyl]-1,2,3,6-tetrahydro-4-pyridinyl}-1H-indole] showed a Ki (human 5-HT1A receptors) of 11.5 nM, a Ki (5-HT transporter) of 8.93 nM and a Ki (Human 5-HT Transporter) of 68.8 nM.
Compound `C=CCn1cc(C2=CCN(CCc3csc4ccc(Cl)cc34)CC2)c2ccccc21` [Compound 32, 3-{1-[2-(5-chloro-1-benzothiophene-3-yl)ethyl]-1,2,3,6-tetrahydro-4-pyridinyl}-1-(2-propenyl)-1H-indole] has an inhibition at 1 µM (human 5-HT1A receptors) of 34% and a Ki (5-HT transporter; [1]) of 132 nM.
`C1=C(c2c[nH]c3ccccc23)CCN(CCc2csc3ccccc23)C1` [Compound 28, 3-{1-[2-(1-benzothiophene-3-yl)ethyl]-1,2,3,6-tetrahydro-4-pyridinyl}-1H-indole] showed a Ki (human 5-HT1A receptors) of 67.9 nM, a Ki (5-HT transporter) of 6.25 nM and a melting point of 195 to 198 °C. The Ki (Human 5-HT Transporter) was 11.1 nM.
`COc1cccc2c(CC(C)N3CC=C(c4c[nH]c5cc(F)ccc45)CC3)coc12` (centres unmarked) [Compound 42, 3-{1-[2-(7-methoxy-1-benzofuran-3-yl)-1-methylethyl]-1,2,3,6-tetrahydro-4-pyridinyl}-6-fluoro-1H-indole] gave a Ki (human 5-HT1A receptors) of 69.4 nM, a Ki (5-HT transporter) of 3.74 nM and a Ki (Human 5-HT Transporter) of 48.7 nM.
In the case of `CC(CN1CC=C(c2c[nH]c3ccccc23)CC1)c1coc2ccccc12` (centres unmarked) [Compound 35, 3-{1-[2-(1-benzofuran-3-yl)propyl]-1,2,3,6-tetrahydro-4-pyridinyl}-1H-indole], the inhibition at 1 µM (human 5-HT1A receptors) is reported as 28%, the Ki (5-HT transporter) is reported as 16 nM and the Ki (Human 5-HT Transporter) is reported as 130 nM.
Work on `c1ccc2c(c1)ccc1c(CCN3CCC(c4c[nH]c5ccccc45)CC3)coc12` [Compound 34, 3-{1-(2-Naphtho[1,2-b]furan-3-yl-ethyl)-piperidin-4-yl]-1H-indole] yielded an inhibition at 1 µM (human 5-HT1A receptors) of 48%, a Ki (5-HT transporter; [1]) of 62 nM and a Ki (Human 5-HT Transporter) of 276 nM.
`Cn1cc(C2=CCN(CCc3csc4ccc(Cl)cc34)CC2)c2ccccc21` [Compound 33, 3-{1-[2-(5-chloro-1-benzothiophene-3-yl)ethyl]-1,2,3,6-tetrahydro-4-pyridinyl}-1-methyl-1H-indole] gave an inhibition at 1 µM (human 5-HT1A receptors) of 45% and a Ki (5-HT transporter) of 39 nM.
Compound `C=CCn1cc(C2=CCN(CCc3csc4ccccc34)CC2)c2ccccc21` [Compound 29, 3-{1-[2-(1-benzothiophene-3-yl)ethyl]-1,2,3,6-tetrahydro-4-pyridinyl}-1-(2-propenyl)-1H-indole] has a Ki (human 5-HT1A receptors; [3H] 8-OH-DPAT displacement, CHO cells with human 5-HT1A, read-out: 5-HT1A Ki) of 243 nM, a Ki (5-HT transporter; [1]) of 104 nM and a Ki (Human 5-HT Transporter) of 1120 nM.
With `Clc1ccc2scc(CCN3CC=C(c4c[nH]c5ccccc45)CC3)c2c1` [Compound 31, 3-{1-[2-(5-chloro-1-benzothiophene-3-yl)ethyl]-1,2,3,6-tetrahydro-4-pyridinyl}-1H-indole] the inhibition at 1 µM (human 5-HT1A receptors) was 29%, the Ki (5-HT transporter; [1]) was 172 nM and the Ki (Human 5-HT Transporter) was 2900 nM.
Work on `Cn1cc(C2=CCN(CCc3csc4ccccc34)CC2)c2ccccc21` [Compound 30, 3-{1-[2-(1-benzothiophene-3-yl)ethyl]-1,2,3,6-tetrahydro-4-pyridinyl}-1-methyl-1H-indole] yielded a Ki (human 5-HT1A receptors) of 53.1 nM, a Ki (5-HT transporter) of 13 nM and a Ki (Human 5-HT Transporter) of 421 nM.
